Measurements taken from patent US11524938B2, “Aromatic sulfonamide derivatives” (Bayer Pharma Aktiengesellschaft, priority 2016, dated 2022).
pIC50: −log10 of the molar value. Values joined by “and” are separate entries in the source; they are usually repeats but may differ in a detail not shown here. Identical values can stand only once.

Target: T1, human P2X4 (Homo sapiens, UniProt Q99571)
T1 sequence (Q99571 1-388): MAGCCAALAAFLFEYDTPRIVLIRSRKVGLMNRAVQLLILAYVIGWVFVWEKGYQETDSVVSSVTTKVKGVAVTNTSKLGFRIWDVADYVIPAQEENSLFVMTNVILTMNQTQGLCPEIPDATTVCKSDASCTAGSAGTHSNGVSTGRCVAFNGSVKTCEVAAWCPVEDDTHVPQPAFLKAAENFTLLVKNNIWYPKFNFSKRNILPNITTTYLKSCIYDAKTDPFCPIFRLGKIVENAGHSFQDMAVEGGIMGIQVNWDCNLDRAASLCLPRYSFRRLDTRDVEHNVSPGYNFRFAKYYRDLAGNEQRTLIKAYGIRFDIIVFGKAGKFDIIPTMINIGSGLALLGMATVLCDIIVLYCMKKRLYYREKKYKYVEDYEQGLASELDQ
Assay: Human P2X4 HEK Cell FLIPR Assay
Assay type: cell-based
Settings: agonist Bz-ATP at EC80; for Emax: HEK293, HEK293 cells, percentage of maximal inhibition, read-out: Human P2X4 HEK Cells (FLIPR Assay) avg Efficacy [%]; for pIC50: HEK293 cells, individual values listed where some fall outside detection range
How it was run: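 Calcium flux read by FLIPR for 120 sec after Bz-ATP challenge at EC80 (established each assay day), following 30 min room-temperature compound preincubation in dye-loaded stable human P2X4 HEK293 cells. Peak RFU over basal normalized to agonist control; IC50, maximal inhibition and Hill coefficient from triplicate means.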

| Emax [%] | pIC50 | Structure (SMILES) |
| --- | --- | --- |
| 90 | 6.34 | Cc1ccc(CC(=O)Nc2ccc(-c3ccc(Cl)nc3)c(S(N)(=O)=O)c2)cc1 [Example 469, N-[4-(6-Chloropyridin-3-yl)-3-sulfamoylphenyl]-2-(4-methylphenyl)acetamide] |
| 96 | 6.20 | Cc1cc(F)c(Br)cc1CC(=O)Nc1ccc(-n2cc(C(F)(F)F)cn2)c(S(N)(=O)=O)c1 [Example 141, 2-(5-Bromo-4-fluoro-2-methylphenyl)-N-{3-sulfamoyl-4-[4-(trifluoromethyl)-1H-pyrazol-1-yl]phenyl}acetamide] |
| 69 | 6.24 | N#Cc1cnn(-c2ccc(NC(=O)Cc3ccc(F)cc3)cc2S(N)(=O)=O)c1 [Example 192, N-[4-(4-Cyano-1H-pyrazol-1-yl)-3-sulfamoylphenyl]-2-(4-fluorophenyl)acetamide] |
| 91 | 7.48 | N#Cc1cnn(-c2ccc(NC(=O)Cc3c(F)ccc(F)c3Cl)cc2S(N)(=O)=O)c1 [Example 208, 2-(2-Chloro-3,6-difluorophenyl)-N-[4-(4-cyano-1H-pyrazol-1-yl)-3-sulfamoylphenyl]-acetamide] |
| 93 | 6.32 | COc1ccc(CC(=O)Nc2ccc(-c3ccc(Cl)nc3)c(S(N)(=O)=O)c2)cc1 [Example 470, N-[4-(6-Chloropyridin-3-yl)-3-sulfamoylphenyl]-2-(4-methoxyphenyl)acetamide] |
| 90 | 6.88 | N#Cc1cnn(-c2ccc(NC(=O)Cc3cccc(F)c3F)cc2S(N)(=O)=O)c1 [Example 200, N-[4-(4-Cyano-1H-pyrazol-1-yl)-3-sulfamoylphenyl]-2-(2,3-difluorophenyl)acetamide] |
| 50 | 4.74 and < 4.60 | NS(=O)(=O)c1cc(NC(=O)C(O)c2ccccc2Cl)ccc1-n1cc(C(F)(F)F)cn1 (stereo not drawn) [Example 498, 2-(2-Chlorophenyl)-2-hydroxy-N-{3-sulfamoyl-4-[4-(trifluoromethyl)-1H-pyrazol-1-yl]phenyl}ethanamide] |
| 77 | 6.50 | N#Cc1cnn(-c2ccc(NC(=O)Cc3ccccc3[N+](=O)[O-])cc2S(N)(=O)=O)c1 [Example 180, N-[4-(4-Cyano-1H-pyrazol-1-yl)-3-sulfamoylphenyl]-2-(2-nitrophenyl)acetamide] |
| 82 | 7.92 | Cc1ccc(F)c(CC(=O)Nc2ccc(-n3cc(F)cn3)c(S(N)(=O)=O)c2)c1Cl [Example 159, 2-(2-Chloro-6-fluoro-3-methylphenyl)-N-[4-(4-fluoro-1H-pyrazol-1-yl)-3-sulfamoyl-phenyl]acetamide] |
| 87 | 6.87 | NS(=O)(=O)c1cc(NC(=O)Cc2ccccc2F)ccc1-c1cnn(C(F)F)c1 [Example 296, N-{4-[1-(Difluoromethyl)-1H-pyrazol-4-yl]-3-sulfamoylphenyl}-2-(2-fluorophenyl)acetamide] |
| 74 | 5.85 | NS(=O)(=O)c1cc(NC(=O)Cc2cccc(F)c2)ccc1-n1cnc(C(F)(F)F)n1 [Example 55, 2-(3-Fluorophenyl)-N-{3-sulfamoyl-4-[3-(trifluoromethyl)-1H-1,2,4-triazol-1-yl]-phenyl}acetamide] |
| 96 | 7.41 | N#Cc1cnn(-c2ccc(NC(=O)Cc3c(F)cccc3Cl)cc2S(N)(=O)=O)c1 [Example 183, 2-(2-Chloro-6-fluorophenyl)-N-[4-(4-cyano-1H-pyrazol-1-yl)-3-sulfamoylphenyl]-acetamide] |
| 80 | 7.55 | Cc1ccccc1CC(=O)Nc1ccc(-n2cc(Cl)cn2)c(S(N)(=O)=O)c1 [Example 173, N-[4-(4-Chloro-1H-pyrazol-1-yl)-3-sulfamoylphenyl]-2-(2-methylphenyl)acetamide] |

The remaining lines, values behind:

| Structure (SMILES) | Emax [%] | pIC50 |
| --- | --- | --- |
| NS(=O)(=O)c1cc(NC(=O)Cc2ccccc2Cl)ccc1-c1csc(C(F)(F)F)n1 [Example 433, 2-(2-Chlorophenyl)-N-{3-sulfamoyl-4-[2-(trifluoromethyl)-1,3-thiazol-4-yl]phenyl}acetamide] | 28 | < 4.60 |
| NS(=O)(=O)c1cc(NC(=O)Cc2ccccc2Cl)ccc1-c1cncc(C(F)(F)F)c1 [Example 331, 2-(2-Chlorophenyl)-N-{3-sulfamoyl-4-[5-(trifluoromethyl)pyridin-3-yl]phenyl}-acetamide] | 66 | – |
| Cc1ncnn1-c1ccc(NC(=O)Cc2ccccc2Cl)cc1S(N)(=O)=O [Example 6, 2-(2-Chlorophenyl)-N-[4-(5-methyl-1H-1,2,4-triazol-1-yl)-3-sulfamoylphenyl]-acetamide] | 84 | 5.97 |
| NS(=O)(=O)c1cc(NC(=O)Cc2ccccc2Cl)ccc1-c1cnn(CC2CC2(Cl)Cl)c1 (stereo not drawn) [Example 357, 2-(2-Chlorophenyl)-N-(4-{1-[(2,2-dichlorocyclopropyl)methyl]-1H-pyrazol-4-yl}-3-sulfamoylphenyl)acetamide] | 87 | 7.15 |
| N#Cc1cc(NC(=O)Cc2ccccc2Cl)cc(S(N)(=O)=O)c1-n1cc(C(F)(F)F)cn1 [Example 244, 2-(2-Chlorophenyl)-N-{3-cyano-5-sulfamoyl-4-[4-(trifluoromethyl)-1H-pyrazol-1-yl]-phenyl}acetamide] | 73 | 6.85 |
| NS(=O)(=O)c1cc(NC(=O)Cc2ccccc2Cl)ccc1-c1cnc(C(F)F)s1 [Example 429, 2-(2-Chlorophenyl)-N-{4-[2-(difluoromethyl)-1,3-thiazol-5-yl]-3-sulfamoylphenyl}acetamide] | 91 | 6.97 |
| Cn1nc(C(F)(F)F)cc1-c1ccc(NC(=O)Cc2ccccc2F)cc1S(N)(=O)=O [Example 368, 2-(2-Fluorophenyl)-N-{4-[1-methyl-3-(trifluoromethyl)-1H-pyrazol-5-yl]-3-sulfamoylphenyl}acetamide] | 100 | 6.88 |
| Cc1ncc(-c2ccc(NC(=O)Cc3ccccc3Cl)cc2S(N)(=O)=O)cn1 [Example 313, 2-(2-Chlorophenyl)-N-[4-(2-methylpyrimidin-5-yl)-3-sulfamoylphenyl]acetamide] | 82 | 6.15 |
| NS(=O)(=O)c1cc(NC(=O)Cc2ccccc2Cl)ccc1-c1cnc(C2CC2)s1 [Example 430, 2-(2-Chlorophenyl)-N-[4-(2-cyclopropyl-1,3-thiazol-5-yl)-3-sulfamoylphenyl]acetamide] | 87 | 7.07 |
| NS(=O)(=O)c1cc(NC(=O)Cc2cccc(Cl)c2)ccc1-c1ccccc1 [Example 272, 2-(3-Chlorophenyl)-N-(2-sulfamoylbiphenyl-4-yl)acetamide] | 90 | 6.29 |
| NS(=O)(=O)c1cc(NC(=O)Cc2ccccc2Cl)cnc1-c1cncc(C(F)(F)F)c1 [Example 305, 2-(2-Chlorophenyl)-N-[3-sulfamoyl-5′-(trifluoromethyl)-2,3′-bipyridin-5-yl]acetamide] | 49 | 7.68 |
| N#Cc1cnn(-c2cc(C(F)(F)F)c(NC(=O)Cc3cccc(C(F)(F)F)c3Cl)cc2S(N)(=O)=O)c1 [Example 488, 2-[2-Chloro-3-(trifluoromethyl)phenyl]-N-[4-(4-cyano-1H-pyrazol-1-yl)-5-sulfamoyl-2-(trifluoromethyl)phenyl]acetamide] | 78 | 5.63 |
| NS(=O)(=O)c1cc(NC(=O)Cc2ccccc2Cl)ccc1-c1cscn1 [Example 437, 2-(2-Chlorophenyl)-N-[3-sulfamoyl-4-(1,3-thiazol-4-yl)phenyl]acetamide] | 53 | 7.41 |
